Measurements: PMC5361079 (Scientific Reports, 2017)
Like-named read-outs stand apart in the source and are kept apart here.

How the values were obtained:
hiPSC-CMs = assay: Intracellular prodrug, cleavage intermediate metabolite and NTP metabolite concentrations in hiPSC-CMs; type: in vitro ADME, human; settings: for Intracellular Concentration, Cleavage Intermediate Metabolite / Intracellular Concentration, NTP Metabolite: BLOQ = below 17 pmol/million cells; for Effect of CatA inhibitor on sofosbuvir cleavage intermediate metabolite in hiPSC-CMs: hiPSC-CMs incubated with sofosbuvir
Experimental: Approximately 18 h before dosing, iCell hiPSC-CMs were switched to iCell cardiomyocyte maintenance media free of Penicillin/Streptomycin. […] […] After the corresponding treatment, cells were washed 2x with 200 μL of ice-cold magnesium- and calcium-free PBS buffer. Cells were then lysed in 100 μL of ice-cold lysis solution (70/30 methanol/water containing 20 mM EDTA and 20 mM EGTA, pH 8) by pipetting up and down 5 times. Plates were sealed and transferred on dry ice for determination of prodrug, cleavage intermediate metabolite, and NTP metabolite concentrations. Intracellular prodrug concentrations were measured using a reversed phase HPLC- high resolution mass spectrometry method. A dimethylhexylamine based ion-pairing HPLC-MS/MS method was used to measure intracellular cleavage intermediate metabolite and NTP metabolite concentrations. Intracellular concentrations (pmol/million cells) of prodrug, cleavage intermediate metabolite, and NTP metabolite were quantitated against calibration standards of the same analytes prepared from control iCell hiPSC-CM lysates.
For prodrug analyses, full scan high resolution mass spectrometry data was collected using an Exactive™ Orbitrap mass spectrometer with an electrospray source operated in the positive ion mode. Prodrug chromatograms were extracted from full scan high resolution mass spectrometry data for the masses indicated in Supplementary Table 5. Absence of endogenous interference(s) was verified by extracting the same ion from full scan high resolution mass spectrometry chromatograms of unspiked control cell lysates. For the cleavage intermediate metabolite and NTP metabolite an electrospray MS/MS method run on a SCIEX API 4000 mass spectrometer with turboV ionspray source was used in negative ion mode monitoring the transitions indicated in Supplementary Table 5. Absence of endogenous interference(s) was verified by monitoring of the same MRM transitions for unspiked control cell lysates. Measured intracellular prodrug, cleavage intermediate metabolite, and NTP metabolite concentrations (in pmol/million cells units) were tabulated (Table 2).

hiPSC-CM syncytia = assay: Spontaneous FP rate and IMP amplitude/beating rate in hiPSC-CM syncytia (RTCA CardioECR / RTCA Cardio); type: cell-based, human; settings: for Effect on FP rate / Effect on IMP amplitude: prodrug co-administered with 0.3 μM amiodarone, steady state (4 h), spontaneously beating hiPSC-CM syncytia
Experimental: hiPSC-CMs (iCells®) from Cellular Dynamics International (CDI, Madison, WI, USA) were seeded onto 48-well CardioECR or 96-well Cardio E-Plates® (ACEA Biosciences Inc., San Diego, CA, USA) coated with 10 μg/mL fibronectin (Sigma Aldrich, Catalog# F1141) at 30,000 cells/well, following manufacturer’s recommendations. Cells were maintained in culture (37 °C, 5% CO2) for a period of 14 days with iCell Maintenance® media (CDI, Madison, WI, USA) exchanged every 2–3 days. Compound addition was only performed on or after Day 14 following cell seeding.
Compound stock solutions were prepared in 100% DMSO or H2O. On the day of compound addition, the media was exchanged with fresh iCell Maintenance® media and allowed to equilibrate for at least 3 h in the incubator. The plates were read on an xCELLigence® RTCA CardioECR or RTCA Cardio (ACEA Biosciences Inc., San Diego, CA, USA). Control pre-reads to establish a baseline were recorded for at least 45 minutes (4 reads at 15-min intervals) prior to compound addition. The compound stock solutions were diluted into iCell Maintenance® media and quickly added to the plate. The plate was continuously monitored for at least 18 h following compound addition. IMP data were sampled at 12 ms (83 Hz), while FP rate data were collected at 0.1 ms (10 KHz). Attachment, growth and viability of syncytia were monitored by means of the baseline IMP signal, as previously described. IMP and FP signals were only interpreted if the baseline IMP was maintained throughout the measurement period (usually ≤18 hrs) at ≥70% of the value before test compound application (pre-read value).

Cav1.2 = target: T1, Cav1.2 (Homo sapiens, UniProt Q13936); assay: Ca2+ influx in Cav1.2/HEK-293 cells (FDSS); type: cell-based; settings: for IC50: Cav1.2/HEK-293, compound alone
T1 construct: expressed in transfected cells
Experimental: The HEK-293 cell line overexpressing Cav1.2 channel proteins was maintained in-house. HEK-293 cells transiently overexpressing Cav1.3 channel proteins were purchased from ChanTest (Charles River Laboratories, Cleveland, OH, USA). The assay was conducted as previously described. Briefly, on experiment day, cells were incubated with Codex ACTOne® dye (Codex Biosolutions, Inc., Gaithersburg, MD, USA) formulated in PPB buffer containing 25 mM potassium (in mM: 127 NaCl, 25 KCl 0.005 CaCl2, 1.7 MgCl2, 10 HEPES, pH = 7.2 with NaOH), or PPB buffer containing 1 mM potassium (in mM: 151 NaCl, 1 KCl 0.005 CaCl2, 1.7 MgCl2, 10 HEPES, pH = 7.2 with NaOH) for 1 h at room temperature, then test compounds were added for another 30-minute incubation at room temperature with a final volume of 100 μL. The Hamamatsu FDSS/μCell imaging platform simultaneously collected Ca^2+ signals from 96-well plates, at a sampling rate of 16 Hz for 20 seconds as baseline, then a trigger buffer (containing in mM: 119 NaCl, 25 KCl, 4 CaCl2, 1.7 MgCl2, 10 HEPES, pH = 7.2 with NaOH) was added using the dispenser of the FDSS/μCell instrument to generate Ca^2+ transient for 40 seconds. The peak amplitude within the latter 40 seconds minus the average amplitude of the first 20 seconds is the final Ca^2+ transient response of each well. […] Relative response of each well was calculated as follows: […]

[1] = hiPSC-CMs, 10 μM prodrug alone, 4 Hours
[2] = hiPSC-CMs, 10 μM prodrug alone, 30 Min
[3] = hiPSC-CMs, 10 μM prodrug + 0.3 μM amiodarone, 4 Hours
[4] = hiPSC-CMs, 10 μM prodrug + 0.3 μM amiodarone, 30 Min
[5] = read-out: IC50, Ca2+ influx inhibition

T1 sequence (Q13936 whole entry): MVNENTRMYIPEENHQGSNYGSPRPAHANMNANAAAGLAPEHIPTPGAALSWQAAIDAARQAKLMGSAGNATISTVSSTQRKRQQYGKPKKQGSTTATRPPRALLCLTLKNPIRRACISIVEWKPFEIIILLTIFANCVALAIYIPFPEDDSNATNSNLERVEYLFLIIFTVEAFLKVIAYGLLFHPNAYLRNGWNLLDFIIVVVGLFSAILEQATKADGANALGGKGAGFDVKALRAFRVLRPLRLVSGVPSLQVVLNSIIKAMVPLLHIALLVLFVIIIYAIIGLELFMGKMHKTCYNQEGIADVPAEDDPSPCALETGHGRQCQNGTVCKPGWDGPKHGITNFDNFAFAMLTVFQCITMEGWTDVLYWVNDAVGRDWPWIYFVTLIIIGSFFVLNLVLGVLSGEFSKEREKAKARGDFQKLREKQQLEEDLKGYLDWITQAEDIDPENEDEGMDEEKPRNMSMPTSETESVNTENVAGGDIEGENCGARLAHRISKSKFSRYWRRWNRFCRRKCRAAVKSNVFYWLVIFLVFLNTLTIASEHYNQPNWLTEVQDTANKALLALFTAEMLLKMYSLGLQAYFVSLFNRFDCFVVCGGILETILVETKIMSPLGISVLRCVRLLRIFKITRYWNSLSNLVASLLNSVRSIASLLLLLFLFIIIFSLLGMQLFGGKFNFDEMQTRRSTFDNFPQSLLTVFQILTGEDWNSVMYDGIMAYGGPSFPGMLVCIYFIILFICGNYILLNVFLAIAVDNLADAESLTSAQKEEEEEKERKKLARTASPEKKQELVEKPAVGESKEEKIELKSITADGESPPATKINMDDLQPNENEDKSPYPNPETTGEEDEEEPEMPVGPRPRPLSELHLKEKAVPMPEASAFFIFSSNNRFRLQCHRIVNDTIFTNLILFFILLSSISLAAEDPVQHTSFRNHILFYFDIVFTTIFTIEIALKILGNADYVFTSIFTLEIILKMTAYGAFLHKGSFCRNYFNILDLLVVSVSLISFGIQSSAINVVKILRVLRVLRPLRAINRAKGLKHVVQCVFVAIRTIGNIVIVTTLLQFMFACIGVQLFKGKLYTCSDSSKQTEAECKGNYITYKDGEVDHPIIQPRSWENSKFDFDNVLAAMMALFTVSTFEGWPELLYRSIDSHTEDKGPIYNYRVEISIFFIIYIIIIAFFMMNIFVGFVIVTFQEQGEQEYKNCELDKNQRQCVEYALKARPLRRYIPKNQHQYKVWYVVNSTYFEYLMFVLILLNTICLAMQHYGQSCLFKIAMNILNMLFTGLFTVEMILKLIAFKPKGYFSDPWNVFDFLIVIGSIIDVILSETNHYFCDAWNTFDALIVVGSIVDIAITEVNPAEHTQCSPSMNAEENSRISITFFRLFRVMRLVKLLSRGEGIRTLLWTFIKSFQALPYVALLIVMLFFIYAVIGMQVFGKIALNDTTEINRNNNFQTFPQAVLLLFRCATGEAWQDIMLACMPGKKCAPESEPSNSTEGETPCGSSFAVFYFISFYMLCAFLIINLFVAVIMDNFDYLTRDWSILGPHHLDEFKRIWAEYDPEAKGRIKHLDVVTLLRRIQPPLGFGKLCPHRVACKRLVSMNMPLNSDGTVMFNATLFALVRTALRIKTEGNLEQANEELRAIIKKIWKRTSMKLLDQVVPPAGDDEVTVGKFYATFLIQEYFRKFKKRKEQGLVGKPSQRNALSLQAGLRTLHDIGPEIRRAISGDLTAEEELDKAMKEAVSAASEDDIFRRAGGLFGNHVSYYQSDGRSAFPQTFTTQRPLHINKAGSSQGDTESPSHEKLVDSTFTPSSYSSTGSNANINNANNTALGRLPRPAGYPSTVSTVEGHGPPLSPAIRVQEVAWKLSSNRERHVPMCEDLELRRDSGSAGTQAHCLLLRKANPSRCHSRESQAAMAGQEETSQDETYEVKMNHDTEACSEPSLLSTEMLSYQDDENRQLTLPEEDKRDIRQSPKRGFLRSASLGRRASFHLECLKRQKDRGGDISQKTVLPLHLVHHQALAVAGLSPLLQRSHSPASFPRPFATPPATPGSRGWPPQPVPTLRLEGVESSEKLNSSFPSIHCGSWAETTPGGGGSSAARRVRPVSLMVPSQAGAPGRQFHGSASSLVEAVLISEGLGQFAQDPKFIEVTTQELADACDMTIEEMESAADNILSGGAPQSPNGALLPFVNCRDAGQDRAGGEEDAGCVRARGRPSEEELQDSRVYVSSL
T1 sequence (Q08289 whole entry partner): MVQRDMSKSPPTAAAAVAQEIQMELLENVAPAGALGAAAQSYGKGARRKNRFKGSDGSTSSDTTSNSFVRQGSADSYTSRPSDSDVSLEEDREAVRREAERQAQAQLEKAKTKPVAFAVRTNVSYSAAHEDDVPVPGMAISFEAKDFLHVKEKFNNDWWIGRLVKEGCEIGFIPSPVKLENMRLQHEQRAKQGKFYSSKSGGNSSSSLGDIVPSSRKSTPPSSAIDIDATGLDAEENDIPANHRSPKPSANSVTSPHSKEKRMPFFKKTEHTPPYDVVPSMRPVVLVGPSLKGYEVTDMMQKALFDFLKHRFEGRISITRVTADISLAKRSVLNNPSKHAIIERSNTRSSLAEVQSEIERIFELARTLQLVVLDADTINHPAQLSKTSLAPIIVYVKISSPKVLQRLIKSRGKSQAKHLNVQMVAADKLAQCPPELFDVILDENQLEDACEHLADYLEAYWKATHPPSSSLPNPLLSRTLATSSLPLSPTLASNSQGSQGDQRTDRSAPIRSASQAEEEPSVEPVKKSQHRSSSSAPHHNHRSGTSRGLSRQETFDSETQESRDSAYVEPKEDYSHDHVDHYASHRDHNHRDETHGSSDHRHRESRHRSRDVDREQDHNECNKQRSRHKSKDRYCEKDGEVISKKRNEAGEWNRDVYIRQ
T1 sequence (P54289 25-946 partner limits assumed): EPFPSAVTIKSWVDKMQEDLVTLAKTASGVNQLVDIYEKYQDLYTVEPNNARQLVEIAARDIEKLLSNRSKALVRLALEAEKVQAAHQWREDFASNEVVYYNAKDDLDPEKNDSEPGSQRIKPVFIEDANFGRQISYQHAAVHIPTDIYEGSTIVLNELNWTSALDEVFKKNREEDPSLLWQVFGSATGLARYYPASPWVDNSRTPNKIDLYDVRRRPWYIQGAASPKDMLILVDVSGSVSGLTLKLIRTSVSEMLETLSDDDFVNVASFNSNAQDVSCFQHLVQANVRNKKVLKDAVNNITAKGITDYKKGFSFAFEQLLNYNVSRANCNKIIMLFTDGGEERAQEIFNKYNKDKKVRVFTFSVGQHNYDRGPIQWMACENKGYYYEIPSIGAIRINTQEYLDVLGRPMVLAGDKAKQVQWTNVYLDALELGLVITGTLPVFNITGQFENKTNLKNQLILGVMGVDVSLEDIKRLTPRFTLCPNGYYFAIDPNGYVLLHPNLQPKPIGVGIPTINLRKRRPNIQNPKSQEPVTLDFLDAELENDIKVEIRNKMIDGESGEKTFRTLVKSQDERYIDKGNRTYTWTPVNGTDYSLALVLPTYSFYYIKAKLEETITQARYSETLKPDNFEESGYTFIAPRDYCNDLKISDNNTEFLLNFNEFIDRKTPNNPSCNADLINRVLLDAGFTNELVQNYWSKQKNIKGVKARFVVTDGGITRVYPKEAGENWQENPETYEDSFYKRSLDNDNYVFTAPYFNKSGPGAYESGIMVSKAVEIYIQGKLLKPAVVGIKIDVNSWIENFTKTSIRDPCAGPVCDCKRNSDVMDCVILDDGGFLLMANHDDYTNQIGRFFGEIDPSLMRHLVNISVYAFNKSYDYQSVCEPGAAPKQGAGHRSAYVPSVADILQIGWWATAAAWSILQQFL
T1 sequence (P54289 947-1103 partner limits assumed): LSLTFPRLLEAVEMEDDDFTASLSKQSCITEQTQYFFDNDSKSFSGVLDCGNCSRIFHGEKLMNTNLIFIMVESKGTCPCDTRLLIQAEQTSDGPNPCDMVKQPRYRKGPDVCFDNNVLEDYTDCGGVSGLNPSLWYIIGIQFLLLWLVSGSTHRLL

Intracellular Concentration, Cleavage Intermediate Metabolite (hiPSC-CMs; [1]) | Intracellular Concentration, Cleavage Intermediate Metabolite (hiPSC-CMs; [2]) | Reduction of cleavage intermediate metabolite level compared to sofosbuvir (hiPSC-CMs; hiPSC-CMs, after 4-h incubation) | SMILES | Intracellular Concentration, Prodrug (hiPSC-CMs; [1]) [pmol/million cells] | Intracellular Concentration, NTP Metabolite (hiPSC-CMs; [1]) | Intracellular Concentration, Prodrug (hiPSC-CMs; [2]) [pmol/million cells] | Intracellular Concentration, NTP Metabolite (hiPSC-CMs; [2]) | Effect of CatA inhibitor on L-ala,SP prodrug + amiodarone effects (FP rate, IMP amplitude) (hiPSC-CM syncytia; 30 min pre-incubation and continued incubation, Ebel 3 or 10 μM with sofosbuvir or MNI-1, SAR164653 30 μM with 1 μM MNI-1, 0.3 μM amiodarone) | Effect of CatA inhibitor on sofosbuvir cleavage intermediate metabolite in hiPSC-CMs (hiPSC-CMs) | Effect on FP rate (hiPSC-CM syncytia) | Effect on IMP amplitude (hiPSC-CM syncytia) | Intracellular Concentration, Prodrug (hiPSC-CMs; [3]) [pmol/million cells] | Intracellular Concentration, NTP Metabolite (hiPSC-CMs; [3]) | Intracellular Concentration, Prodrug (hiPSC-CMs; [4]) [pmol/million cells] | Intracellular Concentration, NTP Metabolite (hiPSC-CMs; [4]) | IC50 (Cav1.2; [5]) [µM] | inhibition at 30 min, 150 µM (Cav1.2; HEK-293 cells overexpressing Cav1.2 channel proteins, pH 7.2, Cav1.2/HEK-293, 150 μM, compound alone, read-out: inhibition at maximal tested concentration) [%] | Intracellular Concentration, Cleavage Intermediate Metabolite (hiPSC-CMs; [3]) | Intracellular Concentration, Cleavage Intermediate Metabolite (hiPSC-CMs; [4]) | IC50 (Cav1.2; n = 3 for each test, read-out: IC50 in repeat tests) [µM]
121.0 ± 6.24 pmol/million cells | B LOQ | ~ 80% | CC(C)OC(=O)C(C)NP(=O)(OCC1OC(n2ccc(=O)[nH]c2=O)C(C)(F)C1O)Oc1ccccc1 (stereo not shown) [MNI-5] | 97.1 ± 36.8 | B LOQ | 53.6 ± 14.2 | B LOQ |  |  |  |  |  |  |  |  |  |  |  |  | 
 |  |  | CC[C@@H](C)[C@@H](O)[C@H](C)C(=O)[C@H](C)/C=C(\C)C[C@H](C)[C@@H]1OC(=O)[C@H]1CC [Ebel, ebelactone B, reference compound] |  |  |  |  | concentration-dependent exacerbation | transiently inhibited the formation of the sofosbuvir cleavage intermediate metabolite to levels below the limit of quantitation after 30 min incubation |  |  |  |  |  |  |  |  |  |  | 
 |  |  | C#C[C@]1(C)[C@@H](O)[C@@H](COP(=O)(N[C@@H](C)C(=O)OC(C)C)Oc2ccccc2)O[C@H]1n1ccc(=O)[nH]c1=O (stereo partly drawn) [MNI-1, isopropyl (2S)-2-[[[(2R,3R,4R,5R)-5-(2,4-dioxopyrimidin-1-yl)-4-ethynyl-3-hydroxy-4-methyl-tetrahydrofuran-2-yl]methoxy-phenoxy-phosphoryl]amino]propanoate] | 69.1 ± 6.8 | Detected but BLOQ | 75.4 ± 2.3 | BLOQ |  |  | Concentration-dependent, steady-state effects | Concentration-dependent, steady-state effects | 70.5 ± 14.4 | Detected but BLOQ | 69.9 ± 5.3 | BLOQ | > 150 | 21 |  |  | 
 |  |  | COc1cc(C(=O)N[C@@H](CC(=O)O)c2ccccc2C)nn1-c1ccccc1F [SAR164653, reference compound] |  |  |  |  |  | decreased, with concentration and time dependence |  |  |  |  |  |  |  |  |  |  | 
 |  |  | CC(C)OC(=O)[C@H](C)NP(=O)(OC[C@H]1O[C@@H](n2ccc(=O)[nH]c2=O)[C@](C)(Cl)[C@@H]1O)Oc1ccccc1 (stereo partly drawn) [MNI-3, isopropyl (2S)-2-[[[(2R,3R,4R,5R)-4-chloro-5-(2,4-dioxopyrimidin-1-yl)-3-hydroxy-4-methyl-tetrahydrofuran-2-yl]methoxy-phenoxy-phosphoryl]amino]propanoate] | 106.9 ± 10.1 |  | 97.3 ± 14.0 | BLOQ |  |  | Concentration-dependent, steady-state effects | Concentration-dependent, steady-state effects | 94.0 ± 6.0 |  | 89.8 ± 12.5 | BLOQ |  |  |  |  | 
B LOQ | B LOQ |  | CC(C)OC(=O)C(C)NP(=O)(OCC1OC(n2ccc(=O)[nH]c2=O)C(C)(F)C1O)Oc1ccccc1 (stereo not shown) [MNI-6] | 65.5 ± 5.8 | B LOQ | 46.6 ± 3.1 | B LOQ |  |  |  |  |  |  |  |  |  |  |  |  | 

SMILES | Intracellular Concentration, Cleavage Intermediate Metabolite (hiPSC-CMs; [1]) | Intracellular Concentration, Cleavage Intermediate Metabolite (hiPSC-CMs; [2]) | Reduction of cleavage intermediate metabolite level compared to sofosbuvir (hiPSC-CMs; hiPSC-CMs, after 4-h incubation) | Intracellular Concentration, Prodrug (hiPSC-CMs; [1]) [pmol/million cells] | Intracellular Concentration, NTP Metabolite (hiPSC-CMs; [1]) | Intracellular Concentration, Prodrug (hiPSC-CMs; [2]) [pmol/million cells] | Intracellular Concentration, NTP Metabolite (hiPSC-CMs; [2]) | Effect of CatA inhibitor on L-ala,SP prodrug + amiodarone effects (FP rate, IMP amplitude) (hiPSC-CM syncytia; 30 min pre-incubation and continued incubation, Ebel 3 or 10 μM with sofosbuvir or MNI-1, SAR164653 30 μM with 1 μM MNI-1, 0.3 μM amiodarone) | Effect of CatA inhibitor on sofosbuvir cleavage intermediate metabolite in hiPSC-CMs (hiPSC-CMs) | Effect on FP rate (hiPSC-CM syncytia) | Effect on IMP amplitude (hiPSC-CM syncytia) | Intracellular Concentration, Prodrug (hiPSC-CMs; [3]) [pmol/million cells] | Intracellular Concentration, NTP Metabolite (hiPSC-CMs; [3]) | Intracellular Concentration, Prodrug (hiPSC-CMs; [4]) [pmol/million cells] | Intracellular Concentration, NTP Metabolite (hiPSC-CMs; [4]) | IC50 (Cav1.2; [5]) [µM] | inhibition at 30 min, 150 µM (Cav1.2; HEK-293 cells overexpressing Cav1.2 channel proteins, pH 7.2, Cav1.2/HEK-293, 150 μM, compound alone, read-out: inhibition at maximal tested concentration) [%] | Intracellular Concentration, Cleavage Intermediate Metabolite (hiPSC-CMs; [3]) | Intracellular Concentration, Cleavage Intermediate Metabolite (hiPSC-CMs; [4]) | IC50 (Cav1.2; n = 3 for each test, read-out: IC50 in repeat tests) [µM]
C#C[C@]1(C)[C@@H](O)[C@@H](COP(=O)(N[C@H](C)C(=O)OC(C)C)Oc2ccccc2)O[C@H]1n1ccc(=O)[nH]c1=O (stereo partly drawn) [MNI-4, isopropyl (2R)-2-[[[(2R,3R,4R,5R)-5-(2,4-dioxopyrimidin-1-yl)-4-ethynyl-3-hydroxy-4-methyl-tetrahydrofuran-2-yl]methoxy-phenoxy-phosphoryl]amino]propanoate] | BLOQ | BLOQ |  | 77.4 ± 6.7 | BLOQ | 75.4 ± 5.1 | BLOQ |  |  | lack of effects | lack of effects | 78.7 ± 6.4 | BLOQ | 84.8 ± 12.4 | BLOQ | ~36 |  | BLOQ | BLOQ | 27 to 45
